Bridge positions count the residues as written; N and C are the ends. Peptide text beside a SMILES is read from it.
Assay: Acute toxicity in animals
Details: in vivo

CC[C@H](C)[C@@H]1NC(=O)[C@H](C)NC(=O)[C@H](CO)NC(=O)[C@H](CC(C)C)NC(=O)[C@H](CCC(=O)O)NC(=O)[C@H]([C@@H](C)O)NC(=O)[C@@H]2CCCN2C(=O)[C@H](C(C)C)NC(=O)[C@H](CO)NC(=O)[C@H](CO)NC(=O)[C@H](C)NC(=O)[C@H](CCCCN)NC(=O)[C@@H]2CCCN2C(=O)[C@H]([C@@H](C)CC)NC(=O)[C@H](CCCCN)NC(=O)[C@@H](N)CSSC[C@@H](C(=O)O)NC(=O)[C@H](C)NC(=O)[C@H](C(C)C)NC(=O)[C@H]([C@@H](C)CC)NC(=O)[C@H](Cc2c[nH]c3ccccc23)NC(=O)[C@H](CC(=O)O)NC(=O)CNC(=O)CNC(=O)[C@@H]2CCCN2C(=O)CNC(=O)[C@H](CC(C)C)NC(=O)[C@H](Cc2ccc(O)cc2)NC(=O)[C@H](CC(C)C)NC(=O)[C@H](CCSC)NC(=O)[C@H](CO)NC1=O [M-C-BMP2] (H-CKIPKASSVPTELSAISMLYLGPGGDWIVAC-OH; disulfide 1-31)
acute toxicity in animals: has not been found to have acute toxicity in animals

Source: patent US12187770B2, “Cyclic peptide from novel bone morphogenetic protein 2, preparation method therefor and application thereof” (Hangzhou Huibo Science and Technology Co., Ltd, priority 2019, dated 2025)
